Reference: patent US20260234157A1, “COMPOUND AND METHOD FOR TARGETED DEGRADATION OF ANDROGEN RECEPTOR” (Gan & Lee Pharmaceuticals Co., Ltd., priority 2023, published 2026)
Changes are numbered by the printed parent chain. Read-outs that look alike come from different tables or passages of the source.

What was measured:
Assay type in all cases: cell-based
AR protein [1] = molecular target: T1, AR protein (Homo sapiens, UniProt P10275, T878A); test: Degradation of AR protein in LNCaP cells (Western blot); details: for inhibition at 0.01 µM: read-out: Degradation rates of the AR protein in LNCaP cells, 10 nM (%); for inhibition at 0.1 µM: read-out: Degradation rates of the AR protein in LNCaP cells, 100 nM (%)
T1 construct: degradation activity of the compounds disclosed in the present disclosure on AR protein in LNCaP cells; host or cells: LNCaP FGC
T1 sequence (P10275 1-920 T878A): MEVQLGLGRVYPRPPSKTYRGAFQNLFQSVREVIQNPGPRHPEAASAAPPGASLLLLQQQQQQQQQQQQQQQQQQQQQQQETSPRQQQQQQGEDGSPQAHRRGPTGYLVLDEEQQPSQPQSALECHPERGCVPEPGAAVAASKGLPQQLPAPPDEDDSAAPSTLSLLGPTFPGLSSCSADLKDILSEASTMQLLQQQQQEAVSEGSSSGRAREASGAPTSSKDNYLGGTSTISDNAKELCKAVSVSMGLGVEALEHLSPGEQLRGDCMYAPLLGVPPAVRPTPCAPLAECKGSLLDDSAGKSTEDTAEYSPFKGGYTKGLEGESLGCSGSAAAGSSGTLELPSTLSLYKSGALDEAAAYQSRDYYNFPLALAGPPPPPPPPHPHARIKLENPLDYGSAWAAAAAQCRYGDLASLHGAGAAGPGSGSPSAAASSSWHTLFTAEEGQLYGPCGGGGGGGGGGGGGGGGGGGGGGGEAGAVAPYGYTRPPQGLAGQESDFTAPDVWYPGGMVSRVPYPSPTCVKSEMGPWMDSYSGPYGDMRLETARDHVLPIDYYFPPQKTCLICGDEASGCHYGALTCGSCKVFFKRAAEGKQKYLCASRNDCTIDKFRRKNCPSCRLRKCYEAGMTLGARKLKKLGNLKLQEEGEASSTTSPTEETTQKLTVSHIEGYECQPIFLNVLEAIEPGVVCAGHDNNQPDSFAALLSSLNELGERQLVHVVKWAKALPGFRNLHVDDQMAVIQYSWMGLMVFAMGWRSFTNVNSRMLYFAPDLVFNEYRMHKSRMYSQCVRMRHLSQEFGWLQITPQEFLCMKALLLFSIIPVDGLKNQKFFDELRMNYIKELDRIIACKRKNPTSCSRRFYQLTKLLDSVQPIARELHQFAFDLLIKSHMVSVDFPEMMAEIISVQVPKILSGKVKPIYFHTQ
Description: The degradation activity of the compounds disclosed in the present disclosure on AR protein in LNCaP cells (cell source: ATCC)
(§1) Corresponding solvent controls were also set and cultured for 8 hours. After 8 hours of cultivation, the culture medium was removed and the cells were washed with PBS. RIPA lysis buffer containing 1% Protease Inhibitor Cocktail was added, and the total protein extract was obtained by lysis and centrifugation. The protein concentration in the extract was detected by BCA method. Protein electrophoresis was performed using SDS-PAGE, followed by transfer of the protein onto a PVDF (Millipore Sigma catalog No. PSRP010R5) membrane at 100V constant voltage for 60 minutes. The PVDF membrane was then placed in a 1×TBST solution with 5% milk and blocked at room temperature for 1 hour. […] The primary antibody solution was discarded and the PVDF membrane was washed three times with 1×TBST for 5 minutes/time. […] The secondary antibody solution was discarded and the PVDF membrane was washed three times with 1×TBST for 5 minutes/time. Western blot imaging was performed by using a dual color infrared laser imaging system (Licor catalog No. Odyssey CLX). Bands were analyzed in grayscale using Image Studio software. For each sample, GAPDH protein bands were detected as internal reference. The degradation rates of the AR protein for the compounds and the positive control sample were calculated based on grayscale of the protein bands.

AR protein [2] = molecular target: T2, AR protein (Homo sapiens, UniProt P10275); test: Degradation of AR protein in VCaP cells (Western blot); details: 8 hours; for inhibition at 0.01 µM: read-out: Degradation rate of the AR protein in VCaP cells, 10 nM (%); for inhibition at 0.1 µM: read-out: Degradation rate of the AR protein in VCaP cells, 100 nM (%)
T2 construct: degradation activity of the compounds disclosed in the present disclosure on AR protein in VCaP cells; host or cells: VCaP
T2 sequence (P10275 1-920): T1 sequence (P10275 1-920 T878A) with A878T
Description: The degradation activity of the compounds disclosed in the present disclosure on AR protein in VCaP cells (cell source: ATCC)
as §1

LNCaP FGC cells = test: Inhibition of proliferation of LNCaP cells (WST-8)
Description: The cells were cultured in a cell culture incubator with 5% CO2 at 37° C. overnight. […] On the sixth day, 96 well plates were taken out, and 20 μL of WST-8 (Beytime, C0040) reagent was added to each well.

[3] = Homo sapiens, LNCaP, 96 h, read-out: IC50 for inhibiting the proliferation of LNCaP cells, LNCaP FGC cells, 96 hours, WST-8 absorbance at 450 nm
[4] = LNCaP cells, compound 10 nM, 8 hours, Western blot grayscale, GAPDH internal reference
[5] = LNCaP cells, compound 100 nM, 8 hours, Western blot grayscale, GAPDH internal reference
[6] = Homo sapiens, LNCaP, 96 h, LNCaP FGC cells, 96 hours, WST-8 absorbance at 450 nm, read-out: IC50 for inhibiting the proliferation of LNCaP cells

Row | Degradation rate of the AR protein in VCaP cells, 10 nM (%) (AR protein [2]; compound at 10 nM) | Degradation rate of the AR protein in VCaP cells, 100 nM (%) (AR protein [2]; compound at 100 nM) | IC50 (LNCaP FGC cells; LNCaP FGC cells, 96 hours, WST-8 absorbance at 450 nm, read-out: IC50 for inhibiting the proliferation of LNCaP cells) [nM] | Compound | inhibition at 0.01 µM (AR protein [1]; LNCaP, 8 h) [%] | inhibition at 0.1 µM (AR protein [1]; LNCaP, 8 h) [%] | inhibition at 0.01 µM (AR protein [2]; compound at 10 nM) [%] | inhibition at 0.1 µM (AR protein [2]; compound at 100 nM) [%] | IC50 (LNCaP FGC cells; [3]) [nM] | inhibition at 0.01 µM (AR protein [1]; [4]) [%] | inhibition at 0.1 µM (AR protein [1]; [5]) [%] | IC50 (LNCaP FGC cells; [6]) [nM]
1 | – | – | – | COc1cc(O[C@H]2CC[C@H](NC(=O)c3ccc(N4CCC(CN5CC6(CCc7cc8c(cc7O6)C(=O)N(C6CCC(=O)NC6=O)C8=O)C5)(OC)CC4)cc3)CC2)ccc1C#N (some centres unmarked) [Compound 285] | 40 | 54 | -5 | 66 | 840 | – | – | –
2 | – | – | – | COc1cc(O[C@H]2C(C)(C)[C@H](NC(=O)c3ccc(N4CCC(F)(CN5CCC6(CC5)COc5c6ccc6c5CN(C5CCC(=O)NC5=O)C6=O)CC4)cc3)C2(C)C)ccc1C#N (some centres unmarked) [Compound 223] | – | – | -3 | 52 | – | 27 | 20 | 9
3 | – | – | – | N#Cc1ccc(O[C@H]2CC[C@H](NC(=O)c3ccc(N4CCC5(CCC(C(=O)N6CCC7(CC6)COc6c7ccc7c6CN(C6CCC(=O)NC6=O)C7=O)CC5)CC4)nn3)CC2)cc1Cl (some centres unmarked) [Compound 253] | – | – | 10 | 55 | – | 37 | 41 | 550
4 | – | – | – | COc1cc(O[C@H]2C(C)(C)[C@H](NC(=O)c3ccc(N4CCC(F)(CN5CC6(CCc7ccc8c(c7O6)C(=O)N(C6CCC(=O)NC6=O)C8=O)C5)CC4)cc3)C2(C)C)ccc1C#N (some centres unmarked) [Compound 274] | – | – | 4 | -13 | – | -3 | -5 | 84900
5 | – | – | – | COc1cc(OC2CCC(NC(=O)c3cnc(N4CCC(C)(CN5CCC6(CC5)COc5c6ccc6c5CN(C5CCC(=O)NC5=O)C6=O)CC4)nc3)CC2)ccc1C#N (centres unmarked) [Compound 247] | – | – | 53 | 70 | – | -10 | 27 | 15
6 | – | – | – | N#Cc1ccc(O[C@H]2CC[C@H](NC(=O)c3ccc(N4CCC(N5CCC6(CC5)COc5c(ccc7c5C(=O)N(C5CCC(=O)NC5=O)C7)C6)CC4)nn3)CC2)cc1Cl (some centres unmarked) [Compound 189] | 42 | 57 | – | – | 26900 | – | – | –
7 | – | – | – | COc1cc(O[C@H]2C(C)(C)[C@H](NC(=O)c3ccc(N4CCC(CN5CCC6(CCc7ccc8c(c7O6)CN(C6CCC(=O)NC6=O)C8=O)CC5)CC4)cc3)C2(C)C)ccc1C#N (some centres unmarked) [Compound 298] | – | – | – | – | – | 27 | 55 | 12100
8 | – | – | – | N#Cc1ccc(O[C@H]2CC[C@H](NC(=O)c3ccc(C#CC4CC5(C4)CC(N4CCC6(CC4)COc4c6ccc6c4CN(C4CCC(=O)NC4=O)C6=O)C5)nn3)CC2)cc1Cl (some centres unmarked) [Compound 252] | – | – | 80 | 87 | – | 56 | 70 | 6240
9 | – | – | – | CC1(C)[C@H](NC(=O)c2ccc(N3CCC(C#N)(CN4CCC5(CC4)COc4c5ccc5c4CN(C4CCC(=O)NC4=O)C5=O)CC3)nn2)C(C)(C)[C@H]1Oc1ccc(C#N)c(Cl)c1 (some centres unmarked) [Compound 225] | – | – | -29 | 30 | – | -35 | 7 | 30
10 | 15 | 42 | 71800 | N#Cc1ccc(O[C@H]2CC[C@H](NC(=O)c3ccc(N4CCC(F)(CN5CCC6(CCc7ccc8c(c7O6)CN(C6CCC(=O)NC6=O)C8=O)CC5)CC4)nn3)CC2)cc1Cl (some centres unmarked) [Compound 166] | – | – | 43 | 60 | – | 36 | 19 | –
11 | – | – | – | N#Cc1ccc(O[C@H]2CC[C@H](NC(=O)c3ccc(N4CC[C@H](CN5CCC6(CC5)COc5c6ccc6c5CN(C5CCC(=O)NC5=O)C6=O)[C@H](F)C4)nn3)CC2)cc1Cl (some centres unmarked) [Compound 226] | – | – | 74 | 83 | – | 52 | 34 | 2.5
12 | – | – | – | COCC1(CN2CCC3(CC2)COc2c3ccc3c2CN(C2CCC(=O)NC2=O)C3=O)CCN(c2ccc(C(=O)N[C@H]3CC[C@H](Oc4ccc(C#N)c(Cl)c4)CC3)nn2)CC1 (some centres unmarked) [Compound 258] | – | – | 60 | 84 | – | 71 | 67 | 17
13 | – | – | – | N#Cc1ccc(O[C@H]2CC[C@H](NC(=O)c3ccc(N4CCC(F)(CN5CCC6(CC5)COc5c6ccc6c5CN(C5CCC(=O)NC5=O)C6=O)CC4)nc3)CC2)cc1Cl (some centres unmarked) [Compound 216] | – | – | 54 | 80 | – | – | – | 6
14 | – | – | – | COc1cc(O[C@H]2C(C)(C)[C@H](NC(=O)c3ccc(N4CCC(C)(CN5CCC6(CCc7ccc8c(c7O6)C(=O)N(C6CCC(=O)NC6=O)C8=O)CC5)CC4)cc3)C2(C)C)ccc1C#N (some centres unmarked) [Compound 268] | – | – | -26 | -32 | – | 15 | 31 | 88600
15 | – | – | – | N#Cc1ccc(O[C@H]2CC[C@H](NC(=O)c3ccc(N4CCC5(CC4)COc4c5ccc5c4CN(C4CCC(=O)NC4=O)C5=O)nn3)CC2)cc1Cl (some centres unmarked) [Compound 200] | – | – | 25 | 57 | – | 44 | 27 | 91000
